Test results as given in PubChem BioAssay AID2060340 (Molecular Pharmacology Branch, DTP, NCI, 2025).

System: 349418-098-R-PDC spheroids, viability, % test/control
Experiment: Anticancer human tumor 349418-098-R-PDC patient-derived lung adenocarcinoma cell line growth inhibition [IpAb]
Settings: spheroids with HUVEC and MSC; for IC50: curve of first compound; for viability, T/C: stronger effect = lower value
Source text: Combinatorial screen of targeted agents with ipatasertib and abemaciclib in multi-cell type tumor spheroids
A high-throughput screen of multi-cell type tumor spheroids was designed to identify active combinations of targeted small molecules and ipatasertib or abemaciclib. Complex spheroids include a stromal component modeled by human endothelial cells (HUVEC) and fibroblasts modeled by human mesenchymal stem cells (MSCs). The concentration ranges selected for each drug and investigational agent were based upon clinically achievable concentrations if the clinical Cmax of the agent was known.
Compounds. The drugs and investigational agents: ipatasertib (NSC767898), abemaciclib(NSC768073), selumetinib (NSC741078), trametinib (758246), adavosertib (NSC754352), everolimus (NSC733504), sapanisertib (NSC764658), vemurafenib (NSC761431), venetoclax (NSC766270), copanlisib (NSC809693), apelisib (NSC765974), palbociblib (NSC758247), vemurafenib (NSC761431), dabrafenib (NSC764134), ravoxertinib (NSC781343), BMS-387032 (NSC767048), sotorasib (NSC818433), talazoparib (NSC767125) and afursertib (NSC778305), were obtained from the National Cancer Institute (NCI) Developmental Therapeutics Program Chemical Repository. The FDA-approved anticancer drug set is available from the NCI Developmental Therapeutics Program. […] The stock solutions were prepared in dimethyl sulfoxide (DMSO, Sigma-Aldrich, St. Louis, MO, cat. D2650) at 800-fold the tested concentration and stored at -70 degrees C prior to their use. All drugs and investigational agents were tested over a range starting from a high concentration at or near the clinical Cmax and decreasing in half-log increments. If the clinical Cmax for an agent had not been determined, the highest concentration tested was 10 microM.
NCI60 Cell Culture. NCI60 cell lines were obtained from the NCI Developmental Therapeutics Program Tumor Repository. For each lot of cells, the Repository performed Applied Biosystems AmpFLSTR Identifiler testing with PCR amplification to confirm consistency with the published Identifier STR profile for each cell line. Cells were kept in continuous culture for no more than 20 passages. The optimal seeding densities for each of the cell lines at each time point assessed were determined prior to performing the concentration response studies. Briefly, the NCI60 human tumor lines were grown as monolayers in RPMI 1640 medium supplemented with 10% FBS and 2 mmol/L L-glutamine.
An additional 9 lines were from the NCI60 cell line panel including MDA-MB-231 breast carcinoma, MDA-MB-468 breast carcinoma, MCF7 breast carcinoma, Hs578T breast carcinoma, MALME-3M melanoma, SK-MEL-2 melanoma, SK-OV-3 ovarian carcinoma, DU-145 prostate carcinoma, PC-3 prostate carcinoma, all cell lines along with major genetic alterations are listed on Table 2. Pooled donor human umbilical vein endothelial cells (HUVEC, Lonza, cat. CC-2519) and human mesenchymal stem cells (hMSC, Lonza, cat. PT-2501) were purchased from Lonza (Walkersville, MD).
PDMR cell lines were grown in complete medium (DC medium): Dulbecco's modified Eagle's medium (DMEM)/F12 supplemented with 5% fetal bovine serum (FBS), 2 mM L-glutamine, 100 U/mL penicillin and 100 µg/ml streptomycin, 0.4 µg/ml hydrocortisone, 10 ng/ml epidermal growth factor (EGF) recombinant human protein, 24 µg/mL adenine, and 0.1 mg/mL primocin. During culture from frozen stock vials, PDMR cells were cultured in the same medium containing 10 µM Y-27632 (see Table 3). The PDCs were cultured in complete DMEM/F12 media without 10 microM Y-27632 dihydrochloride for at least two passages prior to the screen. The pooled donor HUVEC and hMSC were cultured in endothelial cell growth medium 2 (PromoCell, Heidelberg, Germany, cat. C-22011) and mesenchymal stem cell growth medium 2 (PromoCell, cat. C-28009), respectively. For all experiments, HUVEC and hMSC were used at passages </=5.
[…]
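Note: spheroids exposed to compounds for 7 days.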

CC(C)n1nc(-c2ccc3oc(N)nc3c2)c2c(N)ncnc21 + CC(C)NCC(C(=O)N1CCN(c2ncnc3c2C(C)CC3O)CC1)c1ccc(Cl)cc1
IC50 (second compound 0.1 µM): 0.681 nM
IC50 (second compound 0.316 µM): < 0.316 nM
IC50 (second compound 1 µM): < 0.316 nM
IC50 (second compound 3.16 µM): < 0.316 nM
IC50 (second compound 10 µM): < 0.316 nM
viability, T/C (second compound 0.1 µM, first compound 0.000316 µM): 69.4%
viability, T/C (second compound 0.1 µM, first compound 0.001 µM): 40.3%
viability, T/C (second compound 0.1 µM, first compound 0.00316 µM): 14.5%
viability, T/C (second compound 0.1 µM, first compound 0.01 µM): 7.8%
viability, T/C (second compound 0.1 µM, first compound 0.0316 µM): 6.65%
viability, T/C (second compound 0.1 µM, first compound 0.1 µM): 6.26%
viability, T/C (second compound 0.316 µM, first compound 0.000316 µM): 31.8%
viability, T/C (second compound 0.316 µM, first compound 0.001 µM): 17.4%
viability, T/C (second compound 0.316 µM, first compound 0.00316 µM): 8.31%
viability, T/C (second compound 0.316 µM, first compound 0.01 µM): 5.95%
viability, T/C (second compound 0.316 µM, first compound 0.0316 µM): 5.66%
viability, T/C (second compound 0.316 µM, first compound 0.1 µM): 5.5%
viability, T/C (second compound 1 µM, first compound 0.000316 µM): 14.4%
viability, T/C (second compound 1 µM, first compound 0.001 µM): 8.54%
viability, T/C (second compound 1 µM, first compound 0.00316 µM): 5.9%
viability, T/C (second compound 1 µM, first compound 0.01 µM): 4.87%
viability, T/C (second compound 1 µM, first compound 0.0316 µM): 5.35%
viability, T/C (second compound 1 µM, first compound 0.1 µM): 4.7%
viability, T/C (second compound 3.16 µM, first compound 0.000316 µM): 10.7%
viability, T/C (second compound 3.16 µM, first compound 0.001 µM): 6.81%
viability, T/C (second compound 3.16 µM, first compound 0.00316 µM): 5.04%
viability, T/C (second compound 3.16 µM, first compound 0.01 µM): 4.7%
viability, T/C (second compound 3.16 µM, first compound 0.0316 µM): 4.32%
viability, T/C (second compound 3.16 µM, first compound 0.1 µM): 5.98%
viability, T/C (second compound 10 µM, first compound 0.000316 µM): 6.8%
viability, T/C (second compound 10 µM, first compound 0.001 µM): 5.96%
viability, T/C (second compound 10 µM, first compound 0.00316 µM): 5.29%
viability, T/C (second compound 10 µM, first compound 0.01 µM): 3.92%
viability, T/C (second compound 10 µM, first compound 0.0316 µM): 4.43%
viability, T/C (second compound 10 µM, first compound 0.1 µM): 4.42%
